Measured values as given in patent US9878996B2, “2-imidazolyl-pyrimidine scaffolds as potent and selective inhibitors of neuronal nitric oxide synthase” (Northwestern University, priority 2014, dated 2018).
Entries after “also recorded” stand apart in the source; their conditions may differ. Like-named read-outs stand apart in the source and are kept apart here.

Columns and labels:
rat nNOS = rat nNOS (Rattus norvegicus (Rat), UniProt P29476)
eNOS [1] = conditions: for Ratios n/e: selectivity nNOS over eNOS
human nNOS = human nNOS (Homo sapiens (Human), UniProt P29475); conditions: for Ki: read-out: Ki hnNOS, Ki from IC50 by Cheng-Prusoff
iNOS [2] = target: T1, iNOS (Mus musculus (Mouse), UniProt P29477); conditions: for Ratios n/i: selectivity nNOS over iNOS; for Ki: read-out: Ki iNOS, Ki from IC50 by Cheng-Prusoff
CYP3A4 = CYP3A4 (Homo sapiens (Human), UniProt P08684); assay: CYP3A4 inhibition; type: in vitro ADME
iNOS [3] = target: T1, iNOS; assay: biochemical
eNOS [4] = target: eNOS (Bos taurus, UniProt P29473); conditions: read-out: Ki eNOS; Ki from IC50 by Cheng-Prusoff
[5] = test system: panel of other CNS targets, including the muscarinic receptors; assay: Primary binding assays on a panel of other CNS targets (NIMH PDSP); conditions: 10 μM concentration
caco-2 = assay: Caco-2 assay; type: in vitro ADME
[6] = read-out: Ki nNOS, rat nNOS, Ki from IC50 by Cheng-Prusoff
[7] = rat nNOS, Ki from IC50 by Cheng-Prusoff

Chain of eNOS (Bos taurus, UniProt P29473) (P29473 2-1205 limits assumed): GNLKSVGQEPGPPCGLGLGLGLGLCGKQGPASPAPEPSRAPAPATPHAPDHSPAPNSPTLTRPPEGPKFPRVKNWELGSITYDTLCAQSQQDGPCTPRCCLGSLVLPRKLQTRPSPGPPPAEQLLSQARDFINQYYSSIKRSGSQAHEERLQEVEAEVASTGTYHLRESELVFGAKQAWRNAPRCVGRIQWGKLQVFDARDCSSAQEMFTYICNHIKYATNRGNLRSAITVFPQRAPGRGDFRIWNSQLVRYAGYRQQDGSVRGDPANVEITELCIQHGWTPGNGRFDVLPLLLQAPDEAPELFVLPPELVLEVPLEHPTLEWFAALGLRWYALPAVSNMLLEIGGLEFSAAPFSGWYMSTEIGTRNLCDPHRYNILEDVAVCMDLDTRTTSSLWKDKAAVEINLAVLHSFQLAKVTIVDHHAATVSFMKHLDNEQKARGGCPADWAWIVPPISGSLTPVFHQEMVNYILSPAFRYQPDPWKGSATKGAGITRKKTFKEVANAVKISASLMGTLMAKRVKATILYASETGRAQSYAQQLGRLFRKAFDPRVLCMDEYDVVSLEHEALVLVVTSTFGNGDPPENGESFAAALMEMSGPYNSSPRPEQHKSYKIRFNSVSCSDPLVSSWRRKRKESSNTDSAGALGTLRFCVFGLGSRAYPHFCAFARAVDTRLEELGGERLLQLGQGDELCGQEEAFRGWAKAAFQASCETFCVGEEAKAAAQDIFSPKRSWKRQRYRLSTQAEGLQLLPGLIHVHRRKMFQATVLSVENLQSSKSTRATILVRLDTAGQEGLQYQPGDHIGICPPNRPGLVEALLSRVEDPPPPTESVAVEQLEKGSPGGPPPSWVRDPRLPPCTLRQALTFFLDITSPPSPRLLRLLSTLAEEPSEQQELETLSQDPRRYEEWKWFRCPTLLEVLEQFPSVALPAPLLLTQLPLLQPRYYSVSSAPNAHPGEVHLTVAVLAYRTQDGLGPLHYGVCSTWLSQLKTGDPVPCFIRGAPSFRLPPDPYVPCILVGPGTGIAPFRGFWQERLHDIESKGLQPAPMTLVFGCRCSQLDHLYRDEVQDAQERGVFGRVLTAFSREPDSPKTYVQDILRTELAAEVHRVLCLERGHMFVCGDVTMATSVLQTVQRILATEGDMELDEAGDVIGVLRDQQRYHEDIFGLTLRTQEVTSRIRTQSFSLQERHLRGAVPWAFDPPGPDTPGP
Chain of CYP3A4 (P08684 whole entry, species assumed): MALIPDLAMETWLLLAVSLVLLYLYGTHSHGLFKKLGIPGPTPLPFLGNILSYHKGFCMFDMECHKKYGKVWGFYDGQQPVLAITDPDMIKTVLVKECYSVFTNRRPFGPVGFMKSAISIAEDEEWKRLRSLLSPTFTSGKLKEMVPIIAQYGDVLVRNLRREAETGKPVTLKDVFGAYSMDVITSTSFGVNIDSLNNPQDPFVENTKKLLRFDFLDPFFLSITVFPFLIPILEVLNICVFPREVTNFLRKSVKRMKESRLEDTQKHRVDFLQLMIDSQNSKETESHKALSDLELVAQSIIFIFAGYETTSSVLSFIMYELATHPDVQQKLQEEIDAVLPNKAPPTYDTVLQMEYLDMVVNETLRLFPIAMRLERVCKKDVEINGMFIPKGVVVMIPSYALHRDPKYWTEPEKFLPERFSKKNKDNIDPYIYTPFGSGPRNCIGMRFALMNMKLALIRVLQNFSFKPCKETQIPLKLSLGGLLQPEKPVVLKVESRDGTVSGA

SMILES	Ki (rat nNOS; [6]) [nM]	Ratios n/e (eNOS [1])	Ki (human nNOS) [nM]	Ratios n/i (iNOS [2])	Ki (eNOS [4]) [nM]	Ki (iNOS [2]) [nM]	other results
Fc1cccc(CCNCCc2cncc(-n3ccnc3)c2)c1 [Compound 48]	5500	–	–	–	–	–	–
Cc1cn(-c2nccc(CCNCCCc3cccc(F)c3)n2)cn1 [Compound 31]	667	256	4490	430	–	–	Ki (rat nNOS; read-out: potency for nNOS): 667 nM; IC50 (CYP3A4): 15000 nM; Ki (iNOS [3]): 287000 nM
Fc1cccc(C2CC2CNCCc2ccnc(-n3ccnc3)n2)c1 (centres unmarked) [Compound 26]	56	71	359	34	4000	1900	–
N#Cc1cccc(CNCCc2ccnc(-n3ccnc3)n2)c1 [Compound 28]	183	–	138	–	10500	3400	–
Fc1cccc(CCCNCCc2ccnc(-n3ccnn3)n2)c1 [Compound 30]	60000	–	–	–	–	–	–
Fc1cccc(CCCNCc2ccnc(-n3ccnc3)n2)c1 [Compound 5]	2700	33	–	4	90000	10500	–
Fc1cccc(CCCNCCc2ccnc(-n3ccnc3)n2)c1 [Compound 7]	19	–	193	–	4950	770	inhibition of other CNS targets [5]: minimal inhibition for most of them; membrane / cellular permeability (caco-2): good cellular permeability; also recorded: has membrane permeability
Clc1cccc(CCCNCCc2ccnc(-n3ccnc3)n2)c1 [Compound 25]	32	253	125	28	8100	–	Ki (iNOS [3]): 2000 nM
Fc1cccc(CCNCCNc2ccnc(-n3ccnc3)n2)c1 [Compound 3]	370	109	–	17	40000	6400	selectivity over eNOS (eNOS [1]): > 100 fold; Ki nNOS (rat nNOS; [7]): moderate submicromolar; selectivity over iNOS (iNOS [2]): 17 fold
Fc1cccc(CCNCCc2ccnc(-n3ccnc3)n2)c1 [Compound 6]	–	–	–	–	4000	1100	–
c1cncc(CCCNCCc2ccnc(-n3ccnc3)n2)c1 [Compound 29]	54	–	125	–	10900	–	Ki hnNOS (human nNOS; Ki from IC50 by Cheng-Prusoff): good potency; Ki nNOS (rat nNOS; [7]): good potency
Fc1cccc(CCNCc2ccnc(-n3ccnc3)n2)c1 [Compound 4]	8700	–	–	–	–	–	–
Fc1cccc(CCN2CCN(c3ccnc(-n4ccnc4)n3)CC2)c1 [Compound 2]	4700	–	–	–	–	–	–
Fc1cccc(CC2CC2NCCc2ccnc(-n3ccnc3)n2)c1 (centres unmarked) [Compound 27]	40	–	358	–	14500	–	–
